# Data taken from patent publication EP0471841A1, “SULFONAMIDE DERIVATIVE AND PHARMACEUTICAL COMPOSITION CONTAINING THE SAME” (Asahi Kasei Kogyo Kabushiki Kaisha, priority 1990, dated 1991).
# Counter-ions that a name gives are not always drawn.
# System: tracheal specimens excised from guinea pigs
# Test: Inhibitory effect on KCl-induced contraction of tracheal specimens excised from guinea pigs (Magnus tube)
# Assay type: cell-based
# Settings: Cavia porcellus; dose required for relaxing KCl-induced contraction to 50 %; final KCl concentration: 20 mM; 37 °C; compounds other than acid addition salts used as hydrochloride; 3 specimens per group; read-out: ED₅₀ Effect on KCl-induced contraction
# Experimental: The bronchial smooth muscle-relaxing action of the sulfonamide derivative of the present invention was evaluated by the effect on suppression of KCl-induced contraction and PGF2α-induced contraction of bronchial specimens excised from guinea pigs.
# According to a method in which tracheal specimens excised from guinea pigs were used (Takagi and Ozawa, "Yakubutsugaku Jikken (Experiments in Pharmacology)", pp.100-102, 1960, published by Nanzando Japan; and Fujiwara and Shibata, "Yakurigaku Kiso Jikenho (Methods of Fundamental Experiments in Pharmacology)" pp.131-134, 1982, published by Kyourin, Japan), relaxing effect of sulfonamide derivatives of the present invention on bronchial smooth muscle was examined. Of compounds (1) to (69) shown herein, compounds other than acid addition salts were individually used in the form of a hydrochloride which was obtained by the same method as described in Example 61.
# From male guinea pigs weighing 350 to 500 g (Hartley strain, Kuroda Junkei Dobutsu), tracheas were excised and each of the excised tracheal specimens was hung in 20 ml of a Magnus tube filled with Krebs-Henseleit solution under isotonic conditions and the solution temperature was kept at 37 °C. An aqueous KCl solution was dropwise added into the Magnus tube (final KCl concentration: 20 mM) to contract the tracheal specimen. After the KCl-induced contraction became stable, each of the compounds of the present invention was dissolved in distilled water or physiological saline, and the compound solution was cumulatively added into the Magnus tube. The relaxing effect of each of the compounds of the present invention on contracted tracheal specimens was evaluated and a dose-response curve was obtained.
# A dose required for relaxing KCl-induced contraction to 50 %, i.e., ED₅₀ was calculated from the dose-response curve. For comparison, the same method as described above was repeated except that aminophylline was used, to thereby determine an ED₅₀. The number of tracheal specimens in each group was 3.
row,EC50 [µM],Compound
1,35,"CCOc1ccc(S(=O)(=O)NCCNCCc2ccc(OC)cc2)c2cccnc12 [(16), N-[2-(4-methoxyphenethylamino)ethyl]-8-ethoxy-5-quinolinesulfonamide]"
2,71,"CCOc1ccc(S(=O)(=O)NCCNCCc2ccc(Cl)cc2)c2cccnc12 [(17), N-[2-(4-chlorophenethylamino)ethyl]-8-ethoxy-5-quinolinesulfonamide]"
3,75,"CCOc1ccc(S(=O)(=O)NCCNCCc2ccc(C(F)(F)F)cc2)c2cccnc12 [(18), N-[2-(4-trifluoromethylphenethylamino)ethyl]-8-ethoxy-5-quinolinesulfonamide]"
4,125,"CCOc1ccc(S(=O)(=O)NCCNCCc2ccc(OC)c(OC)c2)c2cccnc12 [(19), N-[2-(3,4-dimethoxyphenethylamino)ethyl]-8-ethoxy-5-quinolinesulfonamide]"
5,38,"CCOc1ccc(S(=O)(=O)NCCNCCc2ccc3c(c2)OCO3)c2cccnc12 [(20), N-[2-(3,4-methylenedioxyphenethylamino)ethyl]-8-ethoxy-5-quinolinesulfonamide]"
6,128,"CCOc1ccc(S(=O)(=O)NCCNCc2cccc(Cl)c2)c2cccnc12 [(21), N-[2-(3-chlorobenzylamino)ethyl]-8-ethoxy-5-quinolinesulfonamide]"
7,131,"CCOc1ccc(S(=O)(=O)NCCNCc2ccc(OC)cc2)c2cccnc12 [(22), N-[2-(4-methoxybenzylamino)ethyl]-8-ethoxy-5-quinolinesulfonamide]"
8,163,"CCOc1ccc(S(=O)(=O)NCCNCc2ccc(OC)c(OC)c2)c2cccnc12 [(23), N-[2-(3,4-dimethoxybenzylamino)ethyl]-8-ethoxy-5-quinolinesulfonamide]"
9,31,"CCOc1ccc(S(=O)(=O)NCCNCc2ccc3c(c2)OCO3)c2cccnc12 [(24), N-[2-(3,4-methylenedioxybenzylamino)ethyl]-8-ethoxy-5-quinolinesulfonamide]"
10,105,"CCOc1ccc(S(=O)(=O)NCCNCc2ccccc2)c2cccnc12 [(25), N-(2-benzylaminoethyl)-8-ethoxy-5-quinolinesulfonamide]"
11,112,"CCOc1ccc(S(=O)(=O)NCCNCCc2ccccc2)c2cccnc12 [(26), N-(2-phenethylaminoethyl)-8-ethoxy-5-quinolinesulfonamide]"
12,24,"O=S(=O)(NCCN1CCNCC1)c1cccc2cnccc12 [(28), 1-(5-isoquinolinesulfonylaminoethyl)piperazine]"
13,22,"O=S(=O)(NCCN1CCCNCC1)c1cccc2cnccc12 [(29), 1-(5-isoquinolinesulfonylaminoethyl)homopiperazine]"
14,19,"O=S(=O)(NCCN1CCN(Cc2ccc3c(c2)OCO3)CC1)c1cccc2c(O)nccc12 [(34), 1-(1-hydroxy-5-isoquinolinesulfonylaminoethyl)-4-(3,4-methylenedioxybenzyl)piperazine hydrochloride]"
15,48,"O=S(=O)(NCCN1CCNCC1)c1ccc(Cl)c2ncccc12 [(37), 1-(8-chloro-5-quinolinesulfonylaminoethyl) piperazine]"
16,31,"O=S(=O)(NCCN1CCN(Cc2ccc3c(c2)OCO3)CC1)c1ccc(Cl)c2ncccc12 [(39), 1-(8-chloro-5-quinolinesulfonylaminoethyl)-4-(3,4-methylenedioxybenzyl)piperazine]"
17,68,"O=S(=O)(NCCN1CCCN(Cc2ccc(Cl)cc2)CC1)c1ccc(Cl)c2ncccc12 [(40), 1-(8-chloro-5-quinolinesulfonylaminoethyl)-4-(4-chlorobenzyl)homopiperazine]"
18,78,"O=S(=O)(NCCN1CCN(Cc2ccc(Cl)cc2)CC1)c1ccc(Cl)c2ncccc12 [(41), 1-(8-chloro-5-quinolinesulfonylaminoethyl)-4-(4-chlorobenzyl)piperazine]"
19,95,"COc1ccc(CCN2CCCN(CCNS(=O)(=O)c3ccc(Cl)c4ncccc34)CC2)cc1OC [(42), 1-(8-chloro-5-quinolinesulfonylaminoethyl)-4-(3,4-dimethoxyphenethyl)homopiperazine]"
20,106,"COc1ccc(CCN2CCN(CCNS(=O)(=O)c3ccc(Cl)c4ncccc34)CC2)cc1OC [(43), 1-(8-chloro-5-quinolinesulfonylaminoethyl)-4-(3,4-dimethoxyphenethyl)piperazine]"

# Further lines, the compound ahead of its results:
row,Compound,EC50 [µM]
1,"O=S(=O)(NCCNCCc1ccc2c(c1)OCO2)c1cccc2cnccc12 [(1), N-[2-(3,4-methylenedioxyphenethylamino)ethyl]-5-isoquinolinesulfonamide]",7.4
2,"O=S(=O)(NCCNCCc1ccc2c(c1)OCO2)c1cccc2c(O)nccc12 [(2), N-[2-(3,4-methylenedioxyphenethylamino)ethyl]-1-hydroxy-5-isoquinolinesulfonamide hydrochloride]",15
3,"COc1ccc(CCNCCNS(=O)(=O)c2ccc(Cl)c3ncccc23)cc1 [(5), N-[2-(4-methoxyphenethylamino)ethyl]-8-chloro-5-quinolinesulfonamide]",28
4,"O=S(=O)(NCCNCCc1ccc(Cl)cc1)c1ccc(Cl)c2ncccc12 [(6), N-[2-(4-chlorophenethylamino)ethyl]-8-chloro-5-quinolinesulfonamide]",60
5,"O=S(=O)(NCCNCCc1ccc(C(F)(F)F)cc1)c1ccc(Cl)c2ncccc12 [(7), N-[2-(4-trifluoromethylphenethylamino)ethyl]-8-chloro-5-quinolinesulfonamide]",70
6,"COc1ccc(CCNCCNS(=O)(=O)c2ccc(Cl)c3ncccc23)cc1OC [(8), N-[2-(3,4-dimethoxyphenethylamino)ethyl]-8-chloro-5-quinolinesulfonamide]",120
7,"O=S(=O)(NCCNCCc1ccc2c(c1)OCO2)c1ccc(Cl)c2ncccc12 [(9), N-[2-(3,4-methylenedioxyphenethylamino)ethyl]-8-chloro-5-quinolinesulfonamide]",30
8,"O=S(=O)(NCCNCc1cccc(Cl)c1)c1ccc(Cl)c2ncccc12 [(10), N-[2-(3-chlorobenzylamino)ethyl]-8-chloro-5-quinolinesulfonamide]",120
9,"COc1ccc(CNCCNS(=O)(=O)c2ccc(Cl)c3ncccc23)cc1 [(11), N-[2-(4-methoxybenzylamino)ethyl]-8-chloro-5-quinolinesulfonamide]",125
10,"COc1ccc(CNCCNS(=O)(=O)c2ccc(Cl)c3ncccc23)cc1OC [(12), N-[2-(3,4-dimethoxybenzylamino)ethyl]-8-chloro-5-quinolinesulfonamide]",160
11,"O=S(=O)(NCCNCc1ccc2c(c1)OCO2)c1ccc(Cl)c2ncccc12 [(13), N-[2-(3,4-methylenedioxybenzylamino)ethyl]-8-chloro-5-quinolinesulfonamide]",28
12,O=S(=O)(NCCNCc1ccccc1)c1ccc(Cl)c2ncccc12 [(14)],97
13,O=S(=O)(NCCNCCc1ccccc1)c1ccc(Cl)c2ncccc12 [(15)],110

# Same assay, conditions: dose required for relaxing KCl-induced contraction to 50 %; final KCl concentration: 20 mM; 37 °C; compounds other than acid addition salts used as hydrochloride; 3 specimens per group; read-out: ED₅₀ Effect on KCl-induced contraction
row,Compound,EC50 [µM]
1,1-(1-hydroxy-5-isoquinolinesulfonylaminoethyl) homopiperazine hydrochloride [(33)],24
2,1-(1-hydroxy-5-isoquinolinesulfonylaminoethyl) piperazine hydrochloride [(32)],27
3,"1-(1-hydroxy-5-isoquinolinesulfonylaminoethyl)-3-(3,4-methylenedioxybenzyl)homopiperazine hydrochloride [(35)]",18
